The values below are quoted from earlier work in patent publication US20080306069A1, “Pyrazole Derivatives for the Inhibition of CDK'S and GSK'S” (ASTEX THERAPEUTICS LIMITED, priority 2005, published 2008).

The data set relates to malignant cells from B-cell chronic lymphocytic leukemia (B-CLL). The settings on record: in vitro.

On to `CC[C@H](CO)Nc1nc(NCc2ccccc2)c2ncn(C(C)C)c2n1` [CYC 202], for which the “apoptosis of malignant B-CLL cells” value is reported as “induce in vitro apoptosis”. As for `CN1CC[C@H](c2c(O)cc(O)c3c(=O)cc(-c4ccccc4Cl)oc23)[C@H](O)C1` [Flavopiridol, flavopiridol], the “apoptosis of malignant B-CLL cells” value was “induce in vitro apoptosis”.
